Test results published in article PMC10442857, “Cellular Uptake of a Fluorescent Ligand Reveals Ghrelin O-Acyltransferase Interacts with Extracellular Peptides and Exhibits Unexpected Localization for a Secretory Pathway Enzyme” (ACS Chemical Biology, 2023).
Read-outs that look alike come from different tables or passages of the source. One block for each molecule: values may come before it. Square brackets hold non-standard residues; d marks the D form. Peptide text beside a SMILES is read from it. * marks the point of attachment. X1 = CN1/C(=C/C=C/C=C/C2=[N+](CCCCCC(=O)*)c3ccc(S(=O)(=O)[O-])cc3C2(C)C)C(C)(C)c2cc(S(=O)(=O)O)ccc21; 1Nal = N[C@@H](Cc1cccc2ccccc12)C(=O)O; X2 = O=C(c1ccc2cc(F)ccc2c1)*; Octanoyl = CCCCCCCC(=O)*; Dap = NC[C@H](N)C(=O)O; Inp = O=C(O)C1CCNCC1

Key:
[1] = biological target: T1, GHSR (GHS-R1a) (Homo sapiens, UniProt Q92847); assay: biochemical; type: binding; conditions: for IC50: lower limit from test at 100 µM, read-out: IC50 against GHSR
T1 construct: expressed in transfected cells; host or cells: HEK 293 cells transfected with GHS-R1a (membrane suspension)
Protocol: Peptide binding affinity for the ghrelin receptor was determined using a competitive radioligand-displacement binding assay,[22] with details provided in the Supporting Information. […]
GHSR receptor binding assays. Peptide binding affinity for the ghrelin receptor was determined using a competitive radioligand-displacement binding assay.1 Assays were performed using GHS-R1a transfected HEK 293 cells as the receptor source and human His[125I]-ghrelin(1−28) (PerkinElmer Inc. NEX388010UC ) as the radioligand. Human ghrelin(1−28) was used as a reference to ensure the validity of the results. A suspension of membrane from HEK 293/GHS-R1a cells (100,000 cells per assay tube) were incubated with ghrelin(1−8) peptide analogues (at […]
ghrelin (15 pM per assay tube) in binding buffer (25 mM HEPES, 5 mM magnesium chloride, 1 mM calcium chloride, 2.5 mM EDTA, and 0.4% BSA, pH 7.4). The resulting suspension was incubated for 20 min under shaking (550 rpm) at 37 °C. Unbound [ 125I]-ghrelin was removed and the amount of [ 125I]-ghrelin bound to the membranes was measured by γ counter. IC 50 values were determined by nonlinear regression analysis to fit a four-parameter dose−response curve using Prism 6 (version 6.0c). All binding assays were performed in triplicate. […]

[2] = biological target: T2, hGOAT (Homo sapiens, UniProt Q96T53); assay: hGOAT inhibition assay (octanoylation of GSSFLCAcDan by Sf9 membrane fraction expressing hGOAT, HPLC fluorescence); type: biochemical; conditions: read-out: IC50 against hGOAT
T2 construct: 3xHA (C); FLAG (C); His6 (C); made in house; host or cells: Sf9 insect cells (baculovirus), crude membrane fraction
T2 sequence (Q96T53 1-435): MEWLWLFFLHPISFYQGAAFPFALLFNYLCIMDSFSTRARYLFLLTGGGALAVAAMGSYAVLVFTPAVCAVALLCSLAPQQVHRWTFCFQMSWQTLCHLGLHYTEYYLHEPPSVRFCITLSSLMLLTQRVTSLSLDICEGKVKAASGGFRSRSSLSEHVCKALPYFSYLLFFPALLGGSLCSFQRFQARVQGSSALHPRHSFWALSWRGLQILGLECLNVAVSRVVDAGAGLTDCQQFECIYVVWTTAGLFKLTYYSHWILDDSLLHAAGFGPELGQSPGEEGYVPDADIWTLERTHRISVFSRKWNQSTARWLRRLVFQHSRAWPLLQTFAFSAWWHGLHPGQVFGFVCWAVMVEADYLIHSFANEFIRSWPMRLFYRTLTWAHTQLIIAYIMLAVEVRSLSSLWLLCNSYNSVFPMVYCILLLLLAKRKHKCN
Protocol: Assays were performed using previously reported protocols,[57],[58] as described in the Supporting Information. […]
hGOAT inhibition assays. Assays were performed using previously reported protocols.2-3 For each assay, membrane fraction from Sf9 cells expressing hGOAT was thawed on ice and homogenized by passage through an 18-gauge needle 10 times. Assays were performed with 50 µg of membrane protein, as determined by Bradford assay. Membrane fraction was pre-incubated with 1 µM methyl […]
arachidonyl fluorophosphonate (MAFP) and unlabeled peptide inhibitor or vehicle as indicated in 50 mM HEPES pH 7.0 for 30 minutes at room temperature prior to reaction initiation.4 All reactions were initiated by the addition of 1.5 µM GSSFLCAcDan and 300 µM octanoyl CoA.
Reactions were incubated for 30 minutes at room temperature under foil. All assays were stopped with the addition of 50 µL of 20% acetic acid in isopropanol, and solutions were clarified by protein precipitation with 16.7 µL of 20% trichloroacetic acid, followed by centrifugation (1,000 x g, 2 minutes). The supernatant was then analyzed using reverse-phase HPLC with fluorescence detection as previously described.2-3 Peak integrations for both substrate and product peaks were calculated using Chemstation for LC (Agilent Technologies). Data reported are the average of three independent determinations, with error reported as standard deviation.
For determination of IC50 values, the percent activity at each inhibitor concentration was calculated from HPLC integration data using equations 1 and 2: To determine an IC50 value for a given inhibitor, the plot of % activity versus [inhibitor] was fit to equation 3, with % activity0 denoting hGOAT activity in the presence of the vehicle alone. All reported IC50 values represent the average of a minimum of three independent trials.
(1) % activity = % peptide acylation in presence of inhibitor
% peptide acylation in absence of inhibitor
(2) % peptide octanoylation = Fluorescence of acylated peptide
Total peptide fluorescence (acylated and non-acylated)
(3) % activity = % activity * (1- [inhibitor] )

[3] = biological target: T1, GHSR (GHS-R1a); set-up: method as in Charron et al.[22]; conditions: ref Charron et al.[22]; read-out: IC50 against GHSR; cited from earlier work
Target sequence in this assay (Q92847 whole entry, species assumed): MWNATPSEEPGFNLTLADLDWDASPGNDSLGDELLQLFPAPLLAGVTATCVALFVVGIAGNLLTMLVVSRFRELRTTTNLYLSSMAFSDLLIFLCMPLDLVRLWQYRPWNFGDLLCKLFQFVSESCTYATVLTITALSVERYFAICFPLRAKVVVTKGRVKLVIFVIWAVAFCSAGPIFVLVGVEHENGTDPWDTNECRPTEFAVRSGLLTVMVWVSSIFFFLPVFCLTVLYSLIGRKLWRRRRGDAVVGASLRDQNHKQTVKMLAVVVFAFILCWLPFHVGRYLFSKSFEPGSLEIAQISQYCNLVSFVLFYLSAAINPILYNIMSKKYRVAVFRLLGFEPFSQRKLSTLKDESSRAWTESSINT

[4] = biological target: human ghrelin O-acyltransferase (hGOAT) of the hGOAT inhibition assays (human) (UniProt Q96T53)
[5] = biological target: T3, human ghrelin O-acyltransferase (hGOAT) of the hGOAT inhibition assays (human, UniProt Q96T53 1-435); assay: cell-based or functional assay
T3 sequence (looked up): T2 sequence (Q96T53 1-435)

[6] = average of three independent trials ± one standard deviation

selectivity for GHSR binding over GOAT ([1]; from IC50 values of Table 1): > 100 fold
IC50 [2]: > 100000 nM
Molecule: CC(C)C[C@H](NC(=O)[C@H](Cc1ccccc1)NC(=O)[C@H](CNC(=O)c1ccc2cc(F)ccc2c1)NC(=O)[C@H](CO)NC(=O)CN)C(=O)N[C@@H](CO)C(=O)N1CCC[C@H]1C(=O)N[C@@H](Cc1ccc(O)cc1)C(N)=O [ligand 3, H-GS-(6FN-Dap)-FLSPY-NH2] (H-GS[Dap](X2)FLSPY-NH2)
IC50 [3]: 9.9 nM

IC50 [2, 6]: 64 ± 21 nM
Molecule: CCCCCCCC(=O)NC[C@H](NC(=O)[C@H](CO)NC(=O)CN)C(=O)N[C@@H](Cc1ccccc1)C(=O)N[C@@H](CC(C)C)C(=O)N[C@@H](CO)C(=O)N1CCC[C@H]1C(=O)N[C@@H](Cc1ccc(O)cc1)C(N)=O [ligand 2, H-GS-(C8-Dap)-FLSPY-NH2] (H-GS[Dap](Octanoyl)FLSPY-NH2)
IC50 [3]: 65 nM

Molecule: H-Inp-S-(6FN-Dap)-FLSPY-NH2 [ligand 7]
IC50 [3]: 9.6 nM

inhibition of hGOAT activity (IC50 against hGOAT) [4]: 64 nM
Molecule: ligand 2, H-GS-(C8-Dap)-FLSPY-NH2 (peptide)

IC50 [1]: ≥ 100000 nM
Molecule: CC(C)C[C@H](NC(=O)[C@H](Cc1ccc2ccccc2c1)NC(=O)[C@H](CN)NC(=O)[C@H](CO)NC(=O)CN)C(=O)N[C@@H](CO)C(=O)N1CCC[C@H]1C(=O)N[C@H](C(N)=O)[C@@H](C)O [ligand 13, H-GS-Dap-Nal-2-LSPT-NH2] (HELM PEPTIDE1{G.S.[NC[C@H](N[*:1])C(=O)[*:2]].[O=C([C@H](Cc1ccc2ccccc2c1)N[*:1])[*:2]].L.S.P.T.[am]}$$$$V2.0)

inhibition of hGOAT activity (IC50 against hGOAT) [4]: > 100000 nM
Molecule: ligand 3, H-GS-(6FN-Dap)-FLSPY-NH2 (peptide)

Molecule: H-Aib-S-(6FN-Dap)-FLSPY-NH2 [ligand 6]
IC50 [3]: 9.2 nM

IC50 [1]: ≥ 100000 nM
IC50 [2]: > 100000 nM
Molecule: CC(C)C[C@H](NC(=O)[C@H](Cc1ccccc1)NC(=O)[C@H](CN)NC(=O)[C@H](CO)NC(=O)C(C)(C)N)C(=O)N[C@@H](CO)C(=O)N1CCC[C@H]1C(=O)N[C@@H](Cc1ccc(O)cc1)C(N)=O [ligand 4, H-Aib-S-Dap-FLSPY-NH2] (HELM PEPTIDE1{[Aib].S.[NC[C@H](N[*:1])C(=O)[*:2]].F.L.S.P.Y.[am]}$$$$V2.0)

inhibition of hGOAT activity (IC50 against hGOAT) [4]: 27 nM
Molecule: ligand 11, H-GS-(C8-Dap)-FLSPT-NH2 (peptide)

IC50 [2, 6]: 27 ± 8 nM
Molecule: CCCCCCCC(=O)NC[C@H](NC(=O)[C@H](CO)NC(=O)CN)C(=O)N[C@@H](Cc1ccccc1)C(=O)N[C@@H](CC(C)C)C(=O)N[C@@H](CO)C(=O)N1CCC[C@H]1C(=O)N[C@H](C(N)=O)[C@@H](C)O [ligand 11, H-GS-(C8-Dap)-FLSPT-NH2] (H-GS[Dap](Octanoyl)FLSPT-NH2)
IC50 [3]: 3.3 nM

IC50 [2, 6]: 580 ± 60 nM
Molecule: CCCCCCCC(=O)NC[C@H](NC(=O)[C@H](CO)NC(=O)CN)C(=O)N[C@@H](Cc1ccccc1)C(=O)N[C@@H](CC(C)C)C(=O)N[C@@H](CO)C(=O)N1CCC[C@H]1C(=O)N[C@@H](CCC(=O)O)C(N)=O [ligand 9, H-GS-(C8-Dap)-FLSPE-NH2]
IC50 [3]: 200 nM

inhibition of hGOAT activity (IC50 against hGOAT) [4]: 59 nM
Molecule: ligand 10, H-GS-(C8-Dap)-FLSPN-NH2 (peptide)

IC50 [2, 6]: 59 ± 7 nM
Molecule: CCCCCCCC(=O)NC[C@H](NC(=O)[C@H](CO)NC(=O)CN)C(=O)N[C@@H](Cc1ccccc1)C(=O)N[C@@H](CC(C)C)C(=O)N[C@@H](CO)C(=O)N1CCC[C@H]1C(=O)N[C@@H](CC(N)=O)C(N)=O [ligand 10, H-GS-(C8-Dap)-FLSPN-NH2] (H-GS[Dap](Octanoyl)FLSPN-NH2)
IC50 [3]: 31.9 nM

IC50 [2]: > 100000 nM
Molecule: CC(C)C[C@H](NC(=O)[C@H](Cc1cccc2ccccc12)NC(=O)[C@H](CNC(=O)c1ccc2cc(F)ccc2c1)NC(=O)[C@H](CO)NC(=O)C1CCNCC1)C(=O)N[C@@H](CO)C(=O)N1CCC[C@H]1C(=O)N[C@H](C(N)=O)[C@@H](C)O [ligand 14] (H-[Inp]S[Dap](X2)[1Nal]LSPT-NH2)

inhibition of hGOAT activity (IC50 against hGOAT) [4]: 580 nM
Molecule: ligand 9, H-GS-(C8-Dap)-FLSPE-NH2 (peptide)

IC50 [2, 6]: 17 ± 2 nM
Molecule: CC(C)C[C@H](NC(=O)[C@H](Cc1cccc2ccccc12)NC(=O)[C@H](CN)NC(=O)[C@H](CO)NC(=O)CN)C(=O)N[C@@H](CO)C(=O)N1CCC[C@H]1C(=O)N[C@H](C(=O)N[C@@H](CCCCNC(=O)CCCCC[N+]1=C(/C=C/C=C/C=C2/N(C)c3ccc(S(=O)(=O)O)cc3C2(C)C)C(C)(C)c2cc(S(=O)(=O)[O-])ccc21)C(N)=O)[C@@H](C)O [ligand 15, H-GS-Dap-Nal-1-LSPTK(SulfoCy5)-NH2] (H-GS[Dap][1Nal]LSPTK(X1)-NH2)

IC50 [1]: ≥ 100000 nM
IC50 [2]: > 100000 nM
Molecule: CC(C)C[C@H](NC(=O)[C@H](Cc1ccccc1)NC(=O)[C@H](CN)NC(=O)[C@H](CO)NC(=O)C1CCNCC1)C(=O)N[C@@H](CO)C(=O)N1CCC[C@H]1C(=O)N[C@@H](Cc1ccc(O)cc1)C(N)=O [ligand 5, H-Inp-S-Dap-FLSPY-NH2] (HELM PEPTIDE1{[O=C(C1CCNCC1)[*:2]].S.[NC[C@H](N[*:1])C(=O)[*:2]].F.L.S.P.Y.[am]}$$$$V2.0)

IC50 [1]: ≥ 100000 nM
Molecule: CC(C)C[C@H](NC(=O)[C@H](Cc1ccccc1)NC(=O)[C@H](CN)NC(=O)[C@H](CO)NC(=O)CN)C(=O)N[C@@H](CO)C(=O)N1CCC[C@H]1C(=O)N[C@@H](Cc1ccc(O)cc1)C(N)=O [ligand 1, H-GS-Dap-FLSPY-NH2] (HELM PEPTIDE1{G.S.[NC[C@H](N[*:1])C(=O)[*:2]].F.L.S.P.Y.[am]}$$$$V2.0)

inhibition of hGOAT activity (IC50 against hGOAT) [5]: 104 nM
B1: ligand 1, H-GS-Dap-FLSPY-NH2 (peptide)
chain: GSXFLSPY
HELM: PEPTIDE1{G.S.[NC[C@H](N[*:1])C(=O)[*:2]].F.L.S.P.Y.[am]}$$$$V2.0
SMILES: CC(C)C[C@H](NC(=O)[C@H](Cc1ccccc1)NC(=O)[C@H](CN)NC(=O)[C@H](CO)NC(=O)CN)C(=O)N[C@@H](CO)C(=O)N1CCC[C@H]1C(=O)N[C@@H](Cc1ccc(O)cc1)C(N)=O

inhibition of hGOAT activity (IC50 against hGOAT) [5]: 16 nM
B2: ligand 13, H-GS-Dap-Nal-2-LSPT-NH2 (peptide)
chain: GSXXLSPT
HELM: PEPTIDE1{G.S.[NC[C@H](N[*:1])C(=O)[*:2]].[O=C([C@H](Cc1ccc2ccccc2c1)N[*:1])[*:2]].L.S.P.T.[am]}$$$$V2.0
SMILES: CC(C)C[C@H](NC(=O)[C@H](Cc1ccc2ccccc2c1)NC(=O)[C@H](CN)NC(=O)[C@H](CO)NC(=O)CN)C(=O)N[C@@H](CO)C(=O)N1CCC[C@H]1C(=O)N[C@H](C(N)=O)[C@@H](C)O

inhibition of hGOAT activity (IC50 against hGOAT) [5]: > 100000 nM
B3: ligand 4, H-Aib-S-Dap-FLSPY-NH2 (peptide)
chain: XSXFLSPY
HELM: PEPTIDE1{[Aib].S.[NC[C@H](N[*:1])C(=O)[*:2]].F.L.S.P.Y.[am]}$$$$V2.0
SMILES: CC(C)C[C@H](NC(=O)[C@H](Cc1ccccc1)NC(=O)[C@H](CN)NC(=O)[C@H](CO)NC(=O)C(C)(C)N)C(=O)N[C@@H](CO)C(=O)N1CCC[C@H]1C(=O)N[C@@H](Cc1ccc(O)cc1)C(N)=O
